Series [1] in a line: Cytotoxicity against human L02 cells assessed as inhibitory ratio at 100 uM after 48 hrs by MTT assay. The class given is cell-based. Particulars: read-out: INH. In general terms: Formazan colour is commonly taken as a measure of viable cells.
The subject of series [2] is Mycobacterium tuberculosis. Description: Antitubercular activity against Mycobacterium tuberculosis H37Rv ATCC 27294 after 11 days by serial dilution method. In kind it is functional. As to conditions: H37Rv ATCC 27294, 264 h.

The results in this text go back to ChEMBL document CHEMBL2331501, “3H-1,2,4-Dithiazol-3-one compounds as novel potential affordable antitubercular agents” (Bioorg Med Chem Lett, 2013).

SMILES strings stand for the structures. In brackets after ≈: the same amount, converted by molar mass.

Turning to `O=c1nc(-c2cc(F)c(Cl)nc2Cl)ss1`, in series [1], the cytotoxicity at 48 h, 100 µM was found to be 24.3%. For the same molecule, in series [2], the MIC90 (usually the lowest concentration that inhibits either 90% of growth or 90% of the strains tested, depending on the study) is 32 µg/mL (≈ 113 µM); the MIC99 (as a rule, an inhibitory concentration at the 99% level, which refers to growth in some studies and to a panel of isolates in others) turned out to be 4 µg/mL (≈ 14.1 µM).

Regarding `O=c1nc(-c2cnccn2)ss1`, the cytotoxicity at 48 h, 100 µM in series [1] was 56.7%. In series [2], this molecule had an MIC90 of 32 µg/mL (≈ 162 µM) and an MIC99 of 16 µg/mL (≈ 81.1 µM).

For the molecule `O=c1nc(-c2cccnc2Cl)ss1`, in series [1], the cytotoxicity at 48 h, 100 µM came to 34.4%. Besides, in series [2], the MIC90 amounted to 32 µg/mL (≈ 139 µM) and the MIC99 was found to be 16 µg/mL (≈ 69.4 µM).

Turning to `O=c1nc(-c2ccc([N+](=O)[O-])cc2Cl)ss1`, the cytotoxicity at 48 h, 100 µM in series [1] is 28.6%. For the same molecule, in series [2], the MIC90 was determined as 32 µg/mL (≈ 116 µM) and the MIC99 came out at 16 µg/mL (≈ 58.2 µM).

In the case of `O=c1nc(-c2ccccc2[N+](=O)[O-])ss1`, in series [1], the cytotoxicity at 48 h, 100 µM was determined as 33%. Moreover, in series [2], the MIC90 worked out at 16 µg/mL (≈ 66.6 µM) and the MIC99 turned out to be 32 µg/mL (≈ 133 µM).

Turning to `Cc1ccc(-c2nc(=O)ss2)s1`, the cytotoxicity at 48 h, 100 µM in series [1] was 36.3%. In series [2], this molecule returned an MIC90 of 16 µg/mL (≈ 74.3 µM) and an MIC99 of 32 µg/mL (≈ 149 µM).

As to `Nc1ccc(-c2nc(=O)ss2)cc1`, the cytotoxicity at 48 h, 100 µM in series [1] came to 46.3%. In series [2], this molecule showed an MIC90 of 16 µg/mL (≈ 76.1 µM) and an MIC99 of 32 µg/mL (≈ 152 µM).

As to `O=c1nc(-c2ccc3ccccc3c2)ss1`, the cytotoxicity at 48 h, 100 µM in series [1] worked out at 47.2%. In series [2], this molecule showed an MIC90 of 32 µg/mL (≈ 130 µM) and an MIC99 of 16 µg/mL (≈ 65.2 µM).

In the case of `COc1ccc(OC)c(-c2nc(=O)ss2)c1`, the cytotoxicity at 48 h, 100 µM in series [1] was found to be 23.7%. In series [2], this molecule displayed an MIC90 of 32 µg/mL (≈ 125 µM) and an MIC99 of 32 µg/mL (≈ 125 µM).

Turning to `COc1cccc(-c2nc(=O)ss2)c1`, the cytotoxicity at 48 h, 100 µM in series [1] came out at 38.6%. In series [2], this molecule showed an MIC90 of 16 µg/mL (≈ 71 µM) and an MIC99 of 32 µg/mL (≈ 142 µM).

As to `Cc1ccccc1-c1nc(=O)ss1`, the cytotoxicity at 48 h, 100 µM in series [1] turned out to be 18.6%. Moreover, in series [2], the MIC90 was found to be 16 µg/mL (≈ 76.4 µM) and the MIC99 was found to be 32 µg/mL (≈ 153 µM).

As for `O=c1nc(-c2ccc(F)cc2)ss1`, the cytotoxicity at 48 h, 100 µM in series [1] was found to be 33.7%. In series [2], this molecule came in with an MIC90 of 32 µg/mL (≈ 150 µM) and an MIC99 of 16 µg/mL (≈ 75 µM).

On to `O=c1nc(-c2ccc(Cl)cc2)ss1`, for which the cytotoxicity at 48 h, 100 µM in series [1] was found to be 46%. In series [2], the MIC90 turned out to be 64 µg/mL (≈ 279 µM) and the MIC99 was 32 µg/mL (≈ 139 µM).

`Cc1sc(-c2nsc(=O)o2)cc1[N+](=O)[O-]`: the cytotoxicity at 48 h, 100 µM in series [1] worked out at 53.8%. In series [2], this molecule returned an MIC90 of 2 µg/mL (≈ 8.19 µM) and an MIC99 of 1 µg/mL (≈ 4.09 µM).

For the molecule `O=c1oc(-c2cc(F)c(Cl)nc2Cl)ns1`, in series [1], the cytotoxicity at 48 h, 100 µM turned out to be 15.1%. In series [2], this molecule came in with an MIC90 of 16 µg/mL (≈ 59.9 µM) and an MIC99 of 8 µg/mL (≈ 30 µM).

Consider `O=c1oc(-c2cccnc2Cl)ns1`, for which the cytotoxicity at 48 h, 100 µM in series [1] was found to be 31.4%. In series [2], this molecule yielded an MIC90 of 8 µg/mL (≈ 37.3 µM) and an MIC99 of 8 µg/mL (≈ 37.3 µM).

Take `O=c1oc(-c2ccc([N+](=O)[O-])cc2Cl)ns1`: the cytotoxicity at 48 h, 100 µM in series [1] is 54.6%. In series [2], this molecule gave an MIC90 of 16 µg/mL (≈ 61.9 µM) and an MIC99 of 16 µg/mL (≈ 61.9 µM).

As for `O=c1oc(-c2ccccc2[N+](=O)[O-])ns1`, the cytotoxicity at 48 h, 100 µM in series [1] is 32.4%. Besides, in series [2], the MIC90 came out at 8 µg/mL (≈ 35.7 µM) and the MIC99 is 16 µg/mL (≈ 71.4 µM).

Turning to `Cc1ccc(-c2nsc(=O)o2)s1`, the cytotoxicity at 48 h, 100 µM in series [1] turned out to be 25.1%. In series [2], this molecule registered an MIC90 of 8 µg/mL (≈ 40.1 µM) and an MIC99 of 16 µg/mL (≈ 80.3 µM).

On to `Nc1ccc(-c2nsc(=O)o2)cc1`, for which, in series [1], the cytotoxicity at 48 h, 100 µM came out at 39.5%. For the same molecule, in series [2], the MIC90 was determined as 16 µg/mL (≈ 82.4 µM) and the MIC99 worked out at 16 µg/mL (≈ 82.4 µM).

Turning to `O=c1oc(-c2ccc3ccccc3c2)ns1`, the cytotoxicity at 48 h, 100 µM in series [1] was 26.2%. Also, in series [2], the MIC90 worked out at 16 µg/mL (≈ 69.8 µM) and the MIC99 amounted to 16 µg/mL (≈ 69.8 µM).

As for `COc1ccc(OC)c(-c2nsc(=O)o2)c1`, in series [1], the cytotoxicity at 48 h, 100 µM was found to be 25.3%. For the same molecule, in series [2], the MIC90 was found to be 16 µg/mL (≈ 66.9 µM) and the MIC99 worked out at 16 µg/mL (≈ 66.9 µM).

Turning to `COc1cccc(-c2nsc(=O)o2)c1`, in series [1], the cytotoxicity at 48 h, 100 µM came out at 15%. In series [2], this molecule had an MIC90 of 8 µg/mL (≈ 38.2 µM) and an MIC99 of 16 µg/mL (≈ 76.5 µM).

`Cc1ccccc1-c1nsc(=O)o1`: in series [1], the cytotoxicity at 48 h, 100 µM stood at 18.1%. In series [2], this molecule came in with an MIC90 of 8 µg/mL (≈ 41.4 µM) and an MIC99 of 16 µg/mL (≈ 82.8 µM).

Consider `O=c1oc(-c2ccccc2Cl)ns1`, for which the cytotoxicity at 48 h, 100 µM in series [1] is 20.6%. In addition, in series [2], the MIC90 stood at 8 µg/mL (≈ 37.4 µM) and the MIC99 stood at 8 µg/mL (≈ 37.4 µM).

Take `O=c1oc(-c2ccc(F)cc2)ns1`: the cytotoxicity at 48 h, 100 µM in series [1] turned out to be 21.7%. In series [2], this molecule gave an MIC90 of 16 µg/mL (≈ 81.1 µM) and an MIC99 of 16 µg/mL (≈ 81.1 µM).

For `O=c1oc(-c2ccc(Cl)cc2)ns1`, the cytotoxicity at 48 h, 100 µM in series [1] stood at 39.6%. In series [2], this molecule registered an MIC90 of 32 µg/mL (≈ 150 µM) and an MIC99 of 4 µg/mL (≈ 18.7 µM).

`O=c1nc(-c2ccccc2Cl)ss1`: in series [1], the cytotoxicity at 48 h, 100 µM was 40.1%. In series [2], the MIC90 stood at 8 µg/mL (≈ 34.8 µM) and the MIC99 came to 16 µg/mL (≈ 69.7 µM).

For the molecule `O=c1oc(-c2cnccn2)ns1`, the cytotoxicity at 48 h, 100 µM in series [1] was 31.4%. Further, in series [2], the MIC90 was 16 µg/mL (≈ 88.3 µM) and the MIC99 stood at 4 µg/mL (≈ 22.1 µM).
